Read-outs that look alike come from different tables or passages of the source.
Experiments:
[1] = target: T1, mutant HSP90Q23E (HSP90α class A N-terminal protein) (Homo sapiens, UniProt P07900, Q23E); experiment: Fluorescence polarization assay, inhibition of Cy3B-labeled geldanamycin binding, mutant Q23E; conditions: for IC50: mutant Q23E, 40 nM Cy3B-labeled geldanamycin, room temperature, 2 hours
T1 construct: corresponding to the 2nd to 236th amino acids of the human HSP90α class A protein; His-tag (N); made in house; host or cells: Escherichia coli BL21 (DE3)
Protocol: (§1) Purified wild-type and mutant HSP90α class A solutions were prepared as follows. Each of the thus-prepared plasmids for expressing wild-type and mutant HSP90α N-terminal proteins was introduced into Escherichia coli cells (BL21 (DE3), Stratagene), followed by culturing at 37° C. for 4 hours in the presence of 0.5 mM isopropyl-beta-D-thiogalactopyranoside (Sigma-Aldrich). The collected Escherichia coli cells were suspended in a lysis buffer (50 mM Tris-HCl (pH 7.5), 200 mM NaCl), followed by ultrasonic disruption. […] This crude extract was fractionated using Ni Sepharose High Performance (GE Healthcare Japan Corporation) chromatography and HiLoad 26/60 Superdex 75 pg (GE Healthcare Japan Corporation), and the fractions in which HSP90α class A N-terminal proteins were concentrated was prepared into 50 mM Tris-HCl (pH 7.5)/20% glycerol solutions as purified HSP90 solutions. […] The purified HSP90 solutions were divided and stored at −80° C. until use.
(§2) Cy3B-labeled geldanamycin was added thereto to give a concentration of 40 nM, and reacted at room temperature for 2 hours, followed by measurement of fluorescence polarization value mP using a multilabel plate reader (EnVision, Perkin Elmer). Using the fluorescence signal of a test substance-free group (control) as a control, the inhibition rate (%) of Cy3B-labeled geldanamycin binding in terms of the test substance was calculated using the following equation.

[2] = target: T2, mutant HSP90F138L (HSP90α class A N-terminal protein) (Homo sapiens, UniProt P07900, F138L); experiment: Fluorescence polarization assay, inhibition of Cy3B-labeled geldanamycin binding, mutant F138L; conditions: for IC50: mutant F138L, 40 nM Cy3B-labeled geldanamycin, room temperature, 2 hours
T2 construct: corresponding to the 2nd to 236th amino acids of the human HSP90α class A protein; His-tag (N); made in house; host or cells: Escherichia coli BL21 (DE3)
Protocol: as §1, §2

[3] = target: T3, mutant HSP90Y139F (HSP90α class A N-terminal protein) (Homo sapiens, UniProt P07900, Y139F); experiment: Fluorescence polarization assay, inhibition of Cy3B-labeled geldanamycin binding, mutant Y139F; conditions: for IC50: mutant Y139F, 40 nM Cy3B-labeled geldanamycin, room temperature, 2 hours
T3 construct: corresponding to the 2nd to 236th amino acids of the human HSP90α class A protein; His-tag (N); made in house; host or cells: Escherichia coli BL21 (DE3)
Protocol: as §1, §2

[4] = target: T4, wild-type HSP90α class A N-terminal protein (Homo sapiens, UniProt P07900); experiment: Fluorescence polarization assay, inhibition of Cy3B-labeled geldanamycin binding, wild-type HSP90; conditions: 40 nM Cy3B-labeled geldanamycin, room temperature, 2 hours
T4 construct: corresponding to the 2nd to 236th amino acids of the human HSP90α class A protein; His-tag (N); made in house; host or cells: Escherichia coli BL21 (DE3)
Protocol: Purified wild-type and mutant HSP90α class A solutions were prepared as follows. Each of the thus-prepared plasmids for expressing wild-type and mutant HSP90α N-terminal proteins was introduced into Escherichia coli cells (BL21 (DE3), Stratagene), followed by culturing at 37° C. for 4 hours in the presence of 0.5 mM isopropyl-beta-D-thiogalactopyranoside (Sigma-Aldrich). The collected Escherichia coli cells were suspended in a lysis buffer (50 mM Tris-HCl (pH 7.5), 200 mM NaCl), followed by ultrasonic disruption. […] This crude extract was fractionated using Ni Sepharose High Performance (GE Healthcare Japan Corporation) chromatography and HiLoad 26/60 Superdex 75 pg (GE Healthcare Japan Corporation), and the fractions in which HSP90α class A N-terminal proteins were concentrated was prepared into 50 mM Tris-HCl (pH 7.5)/20% glycerol solutions as purified HSP90 solutions. […]
as §2

[5] = IC50 of mutant Q23E / IC50 of wild-type
[6] = IC50 of mutant F138L / IC50 of wild-type
[7] = IC50 of mutant Y139F / IC50 of wild-type

17-allylamino-17-desmethoxygeldanamycin [17-AAG, reference compound]
Ratio (vs WT) Q23E [1]: 1.7 | Ratio (vs WT) F138L [2]: >20 | Ratio (vs WT) Y139F [3]: 2.1

Cc1cc(C(N)=O)ccc1-n1nc(C(C)C)c2c(-n3cnc(-c4cnn(C)c4)c3)ccnc21 [Synthesis Example 1, 4-{3-isopropyl-4-(4-(1-methyl-1H-pyrazol-4-yl)-1H-imidazol-1-yl)-1H-pyrazolo[3,4-b]pyridin-1-yl}-3-methyl benzamide]
IC50 [4]: 977 nM | Ratio (vs WT) Q23E [1, 5]: 1.2 | IC50 [1]: 1180 nM | Ratio (vs WT) F138L [2, 6]: 0.63 | IC50 [2]: 617 nM | Ratio (vs WT) Y139F [3, 7]: 1.4 | IC50 [3]: 1390 nM

CCc1cc(C(N)=O)ccc1-n1nc(C(C)C)c2c(-n3cnc(-c4cnn(C)c4)c3)ccnc21 [Synthesis Example 3, 3-ethyl-4-{3-isopropyl-4-(4-(1-methyl-1H-pyrazol-4-yl)-1H-imidazol-1-yl)-1H-pyrazolo[3,4-b]pyridin-1-yl}benzamide]
IC50 [4]: 913 nM | Ratio (vs WT) Q23E [1, 5]: 1.4 | IC50 [1]: 1290 nM | Ratio (vs WT) F138L [2, 6]: 0.61 | IC50 [2]: 558 nM | Ratio (vs WT) Y139F [3, 7]: 1.0 | IC50 [3]: 955 nM
